In patent US11446226B2, “Composition for preventing or improving intrinsic aging comprising paeoniflorin or albiflorin” (Amorepacific Corporation, priority 2017, dated 2022):

What was measured:
MMP-1 [1] = test: MMP-1 inhibition effect in fibroblasts, stimulation source TNF-α (MMP-1 ELISA normalized to CCK8 cell viability); type: cell-based; conditions: TNF-α 10 ng/mL; for MMP-1 level with respect to the negative control group treated with TNF-α as 100: 0.1 or 1 ppm; for Normalized MMP-1 level relative to TNF-α control (100%): 48 hours
Experimental: Fibroblasts acquired from ATCC were transferred to a medium containing 10% (v/v) FBS and were cultured at 37° C. for 24 hours under the condition of 5% CO2. After replacing the medium with a serum-free medium, the cells were cultured for at least 6 hours. Then, after treating with 10 ng/mL TNF-α, as an intrinsic inflammatory factor causing intrinsic aging, and then with 0.1 ppm or 1 ppm paeoniflorin (Sigma-Aldrich), the cells were cultured for 48 hours. 48 hours later, the culture was separated partly and MMP-1 ELISA was conducted according to a method commonly employed in the art. A negative control group was not treated with paeoniflorin, and a positive control group was treated with 2 μM ATRA (all-trans retinoic acid) instead of the paeoniflorin. Subsequently, the remaining culture was separated partly and cell viability was measured by CCK8 (cell count kit 8) assay according to a method commonly employed in the art. The result was normalized to the result of the MMP-1 ELISA. Meanwhile, the MMP-1 inhibition effect by albiflorin was investigated in the same manner as the MMP-1 inhibition effect by paeoniflorin, except that the cells were treated with 0.1 ppm or 1 ppm albiflorin (Wako Chemical) instead of the 0.1 ppm or 1 ppm paeoniflorin. The MMP-1 inhibition effect by a combination of paeoniflorin and albiflorin was investigated in the same manner as the MMP-1 inhibition effect by paeoniflorin, except that the cells were treated with a 10:1 mixture of paeoniflorin and albiflorin (P+A) at 0.1+0.01 ppm or 1+0.1 ppm instead of the 0.1 ppm or 1 ppm paeoniflorin.

MMP-1 [2] = test: MMP-1 inhibition effect in fibroblasts, stimulation source UV (UVB; MMP-1 ELISA normalized to CCK8 cell viability); type: cell-based; conditions: 48 hours
Experimental: Fibroblasts acquired from ATCC were transferred to a medium containing 10% (v/v) FBS and were cultured at 37° C. for 24 hours under the condition of 5% CO2. After replacing the medium with a serum-free medium, the cells were cultured for at least 6 hours. Then, after treating with 30 mJ/cm^2 UVB, as an extrinsic stimulating factor causing extrinsic aging, and then with 0.1 ppm or 1 ppm paeoniflorin (Sigma-Aldrich), the cells were cultured for 48 hours. 48 hours later, the culture was separated partly and MMP-1 ELISA was conducted according to a method commonly employed in the art. A negative control group was not treated with paeoniflorin, and a positive control group was treated with 2 μM ATRA (all-trans retinoic acid) instead of the paeoniflorin.
Subsequently, the remaining culture was separated partly and cell viability was measured by CCK8 (cell count kit 8) assay according to a method commonly employed in the art. The result was normalized to the result of the MMP-1 ELISA.
Meanwhile, the MMP-1 inhibition effect by albiflorin was investigated in the same manner as the MMP-1 inhibition effect by paeoniflorin, except that the cells were treated with 0.1 ppm or 1 ppm albiflorin (Wako Chemical) instead of the 0.1 ppm or 1 ppm paeoniflorin.

[3] = 0.1 ppm, with respect to negative control
[4] = 1 ppm, with respect to negative control
[5] = UVB 30 mJ/cm^2, 0.1 ppm, with respect to negative control
[6] = UVB 30 mJ/cm^2, 1 ppm, with respect to negative control

**Q.** Which “MMP-1 level with respect to the negative control group treated with TNF-α as 100” value (MMP-1 [1]) does the source give for `C[C@]12C[C@@H](O)[C@@H]3C[C@@]1(O[C@@H]1O[C@H](CO)[C@@H](O)[C@H](O)[C@H]1O)[C@]3(COC(=O)c1ccccc1)C(=O)O2` [Albiflorin, albiflorin] here?
**A.** about 60%

**Q.** And the “Normalized MMP-1 level relative to TNF-α control (100%)” value (MMP-1 [1]; [3])?
**A.** 63.25%

**Q.** And the “Normalized MMP-1 level relative to TNF-α control (100%)” value (MMP-1 [1]; [4])?
**A.** 59.44%

**Q.** And the “Normalized MMP-1 Inhibition (%)” value (MMP-1 [2]; [5])?
**A.** −5.29%

**Q.** What about the “Normalized MMP-1 Inhibition (%)” value (MMP-1 [2]; [6]) of the same compound?
**A.** −10.96%

**Q.** Which results are given for `C[C@@]12C[C@@]3(O)O[C@@H](O1)[C@]1(COC(=O)c4ccccc4)[C@H]3C[C@@]12O[C@@H]1O[C@H](CO)[C@@H](O)[C@H](O)[C@H]1O` [Paeoniflorin, paeoniflorin]?
**A.** MMP-1 level with respect to the negative control group treated with TNF-α as 100 (MMP-1 [1]): about 60%; Normalized MMP-1 level relative to TNF-α control (100%) (MMP-1 [1]; [3]): 69.34%; Normalized MMP-1 level relative to TNF-α control (100%) (MMP-1 [1]; [4]): 66.49%; Normalized MMP-1 Inhibition (%) (MMP-1 [2]; [5]): −3.27%; Normalized MMP-1 Inhibition (%) (MMP-1 [2]; [6]): −22.03%

**Q.** What does the source list for `CC1=C(/C=C/C(C)=C/C=C/C(C)=C/C(=O)O)C(C)(C)CCC1` [Positive control, all-trans retinoic acid, reference compound]?
**A.** Normalized MMP-1 level relative to TNF-α control (100%) (MMP-1 [1]; positive control 2 μM ATRA): 48.75%; Normalized MMP-1 Inhibition (%) (MMP-1 [2]; UVB 30 mJ/cm^2, positive control 2 μM ATRA): 25.72%
